For 18 molecules, T/C results are on record in PubChem BioAssay AID256 (DTP/NCI, 2004).

Several values for one entry are separate records, joined by “and”; a condition that tells them apart may be missing. Identical values can stand only once. Inconclusive results and toxic doses are left out.

For this experiment, the system named is CD2F1 mice, L1210 leukemia ip, survival T/C. Kind of experiment: NCI In Vivo Anticancer Drug Screen. Data for tumor model L1210 Leukemia (intraperitoneal) in CD2F1 (CDF1) mice. The settings on record: higher = longer survival. In a few lines: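 Vehicle-treated tumor-bearing mice served as controls (C) for compound-treated mice (T). Reported figure is T divided by C.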

Where [1] appears, read: endpoint: mean survival time, dose: 100.0 mg/kg/injection, schedule: Q01DX009 (ip), vehicle: saline with Tween-80.
Where [2] appears, read: endpoint: mean survival time, dose: 100.0 mg/kg/injection, schedule: Q04DX003 (ip), vehicle: saline with Tween-80.
[3] abbreviates: endpoint: mean survival time, dose: 200.0 mg/kg/injection, schedule: Q01DX009 (ip), vehicle: saline with Tween-80.
[4] abbreviates: endpoint: mean survival time, dose: 200.0 mg/kg/injection, schedule: Q04DX003 (ip), vehicle: saline with Tween-80.
Setting [5] is: endpoint: mean survival time, dose: 400.0 mg/kg/injection, schedule: Q01DX009 (ip), vehicle: saline with Tween-80.
Setting [6] is: endpoint: mean survival time, dose: 400.0 mg/kg/injection, schedule: Q04DX003 (ip), vehicle: saline with Tween-80.
The mark [7] stands for this setting: endpoint: mean survival time, dose: 50.0 mg/kg/injection, schedule: Q01DX009 (ip), vehicle: saline with Tween-80.
Setting [8] is: endpoint: mean survival time, dose: 200.0 mg/kg/injection, schedule: Q01DX001 (ip), vehicle: saline with Tween-80.
[9] abbreviates: endpoint: mean survival time, dose: 400.0 mg/kg/injection, schedule: Q01DX001 (ip), vehicle: saline with Tween-80.
[10] abbreviates: endpoint: mean survival time, dose: 100.0 mg/kg/injection, schedule: Q01DX001 (ip), vehicle: saline with Tween-80.
The mark [11] stands for this setting: endpoint: mean survival time, dose: 100.0 mg/kg/injection, schedule: Q04DX003 (ip), vehicle: saline.
[12] abbreviates: endpoint: mean survival time, dose: 200.0 mg/kg/injection, schedule: Q04DX003 (ip), vehicle: saline.

As for `O=C(COc1ccc(Cl)cc1)C1CSc2ccc(Cl)cc21` (stereo unspecified), the T/C is 88 % of control under setting [1]; 95 % of control under setting [2]; 91 % of control under setting [3]; 92 % of control under setting [4]; 89 % of control under setting [5]; 88 % of control under setting [6].
Consider `CC1=C2C(=O)[C@H]3[C@@H](CC=C4C[C@@H](O)CC[C@@]43C)[C@@H]2CC[C@]12O[C@@H]1C[C@H](C)CN[C@H]1[C@H]2C`, for which the T/C is, setting by setting: (endpoint: mean survival time, dose: 12.5 mg/kg/injection, schedule: Q01DX009 (ip), vehicle: saline with Tween-80) 100 % of control; (endpoint: mean survival time, dose: 25.0 mg/kg/injection, schedule: Q01DX009 (ip), vehicle: saline with Tween-80) 93 % of control; under setting [7], 91 % of control; under setting [8], 91 % of control; under setting [9], 88 % of control.
With `CN1CCC(C#N)(c2ccccn2)CC1`, the T/C is 95 % of control (endpoint: mean survival time, dose: 5.0 mg/kg/injection, schedule: Q01DX009 (ip), vehicle: saline with Tween-80); 103 % of control (endpoint: mean survival time, dose: 5.0 mg/kg/injection, schedule: Q01DX009 (ip), vehicle: saline); 91 % of control (endpoint: mean survival time, dose: 10.0 mg/kg/injection, schedule: Q01DX009 (ip), vehicle: saline with Tween-80); 106 % of control (endpoint: mean survival time, dose: 10.0 mg/kg/injection, schedule: Q01DX009 (ip), vehicle: saline); 97 % of control (endpoint: mean survival time, dose: 20.0 mg/kg/injection, schedule: Q01DX009 (ip), vehicle: saline).
Take `CCN(CC)C(=S)S`: the T/C (endpoint: mean survival time, dose: 100.0 mg/kg/injection, schedule: Q04DX003 (ip), vehicle: other) was 94 % of control; the T/C (endpoint: mean survival time, dose: 200.0 mg/kg/injection, schedule: Q04DX003 (ip), vehicle: other) was 97 % of control; the T/C (endpoint: mean survival time, dose: 400.0 mg/kg/injection, schedule: Q04DX003 (ip), vehicle: other) was 103 % of control.
In the case of `CCCCCCC(=O)/C=C\C(C)=C\c1ccccc1`, the T/C is, setting by setting: under setting [10], 94 % of control; under setting [1], 98 % of control; under setting [8], 100 % of control; under setting [3], 98 % of control; under setting [9], 94 % of control; under setting [5], 98 % of control.
As for `N=c1c(C(=O)OCc2ccccc2)ncc(CCl)n1O`, the T/C was 100 % of control (endpoint: median survival time, dose: 25.0 mg/kg/injection, schedule: Q01DX009 (ip), vehicle: saline with Tween-80); 101 % of control and 102 % of control (endpoint: median survival time, dose: 50.0 mg/kg/injection, schedule: Q01DX009 (ip), vehicle: saline with Tween-80); 97 % of control and 109 % of control (endpoint: median survival time, dose: 100.0 mg/kg/injection, schedule: Q01DX009 (ip), vehicle: saline with Tween-80); 93 % of control and 97 % of control (endpoint: median survival time, dose: 200.0 mg/kg/injection, schedule: Q01DX009 (ip), vehicle: saline with Tween-80); 99 % of control and 100 % of control (endpoint: median survival time, dose: 400.0 mg/kg/injection, schedule: Q01DX009 (ip), vehicle: saline with Tween-80).
As for `Cc1nc(N)[nH]c(=O)c1CCCNS(=O)(=O)c1ccc(CN)cc1`, the T/C by setting is: (endpoint: mean survival time, dose: 100.0 mg/kg/injection, schedule: Q01DX001 (ip), vehicle: saline) 110 % of control; (endpoint: mean survival time, dose: 200.0 mg/kg/injection, schedule: Q01DX001 (ip), vehicle: saline) 101 % of control; (endpoint: mean survival time, dose: 400.0 mg/kg/injection, schedule: Q01DX001 (ip), vehicle: saline) 100 % of control.
Take `Cc1cc(O)c(N=Nc2cccc(C(=O)O)c2)cc1C`: the T/C is 107 % of control (endpoint: mean survival time, dose: 50.0 mg/kg/injection, schedule: Q01DX009 (ip), vehicle: saline); 96 % of control (endpoint: mean survival time, dose: 100.0 mg/kg/injection, schedule: Q01DX009 (ip), vehicle: saline); 103 % of control (endpoint: mean survival time, dose: 200.0 mg/kg/injection, schedule: Q01DX009 (ip), vehicle: saline).
Consider `O=C(Nc1nccs1)Nc1cc([N+](=O)[O-])ccc1F`, for which the T/C was 104 % of control (endpoint: mean survival time, dose: 50.0 mg/kg/injection, schedule: Q01DX009 (ip), vehicle: Klucel (hydroxypropylcellulose) (HPC)); 96 % of control (endpoint: mean survival time, dose: 100.0 mg/kg/injection, schedule: Q01DX009 (ip), vehicle: Klucel (hydroxypropylcellulose) (HPC)); 93 % of control (endpoint: mean survival time, dose: 200.0 mg/kg/injection, schedule: Q01DX009 (ip), vehicle: Klucel (hydroxypropylcellulose) (HPC)).
With `CC1=CC(c2ccccc2)(c2ccccc2)c2ccccc21`, the T/C was 104 % of control under setting [10] and 91 % of control under setting [8].
Take `[I][Ni][I].c1ccc([PH+](c2ccccc2)c2ccccc2)cc1.c1ccc([PH+](c2ccccc2)c2ccccc2)cc1`: the T/C (endpoint: mean survival time, dose: 100.0 mg/kg/injection, schedule: Q04DX002 (ip), vehicle: saline with Tween-80) is 87 % of control; the T/C (endpoint: mean survival time, dose: 200.0 mg/kg/injection, schedule: Q04DX002 (ip), vehicle: saline with Tween-80) is 91 % of control; the T/C (endpoint: mean survival time, dose: 400.0 mg/kg/injection, schedule: Q04DX002 (ip), vehicle: saline with Tween-80) was 87 % of control.
For `CC(C)(C)OC(=O)NC(Cc1cn(Cc2ccccc2)cn1)C(=O)O` (stereo unspecified), the T/C reads like this: under setting [2], 95 % of control; under setting [4], 101 % of control; under setting [6], 93 % of control.
On to `Cn1c(-[n+]2ccccc2)nc2c1c(=O)[nH]c(=O)n2C`, for which the T/C reads like this: (endpoint: mean survival time, dose: 12.5 mg/kg/injection, schedule: Q01DX005 (ip), vehicle: water) 100 % of control; (endpoint: mean survival time, dose: 25.0 mg/kg/injection, schedule: Q01DX005 (ip), vehicle: water) 102 % of control; (endpoint: mean survival time, dose: 50.0 mg/kg/injection, schedule: Q01DX005 (ip), vehicle: water) 97 % of control; (endpoint: mean survival time, dose: 100.0 mg/kg/injection, schedule: Q01DX005 (ip), vehicle: water) 94 % of control; (endpoint: mean survival time, dose: 200.0 mg/kg/injection, schedule: Q01DX005 (ip), vehicle: water) 102 % of control.
On to `O=C(O)CCOc1ccc([N+](=O)[O-])cc1`, for which the T/C under setting [1] was 96 % of control, the T/C under setting [3] is 98 % of control and the T/C under setting [5] is 94 % of control.
With `NCCNc1ccc(NCCN)c2c1C(=O)c1ccccc1C2=O`, the T/C (endpoint: mean survival time, dose: 2.0 mg/kg/injection, schedule: Q01DX009 (ip), vehicle: acid diluted with saline) was 159 % of control; the T/C (endpoint: mean survival time, dose: 4.0 mg/kg/injection, schedule: Q01DX009 (ip), vehicle: acid diluted with saline) was 175 % of control; the T/C (endpoint: mean survival time, dose: 6.25 mg/kg/injection, schedule: Q01DX009 (ip), vehicle: distilled water + Tween-80) is 156 % of control; the T/C (endpoint: mean survival time, dose: 8.0 mg/kg/injection, schedule: Q01DX009 (ip), vehicle: acid diluted with saline) is 345 % of control; the T/C (endpoint: mean survival time, dose: 12.5 mg/kg/injection, schedule: Q01DX009 (ip), vehicle: distilled water + Tween-80) was 227 % of control; the T/C (endpoint: mean survival time, dose: 16.0 mg/kg/injection, schedule: Q01DX009 (ip), vehicle: acid diluted with saline) was 98 % of control. Further, the T/C (endpoint: mean survival time, dose: 25.0 mg/kg/injection, schedule: Q01DX009 (ip), vehicle: distilled water + Tween-80) was 272 % of control.
Take `Nc1ccc2cc(Cl)ccc2c1`: the T/C reads like this: under setting [7], 103 % of control; under setting [1], 105 % of control; under setting [2], 95 % of control; under setting [4], 95 % of control.
Regarding `NNC(=O)CCCCC(=O)NN`, the T/C is, setting by setting: under setting [11], 97 % of control; under setting [12], 100 % of control; (endpoint: mean survival time, dose: 400.0 mg/kg/injection, schedule: Q04DX003 (ip), vehicle: saline) 99 % of control.
Take `CN1CCN(CCCN2CC3CC=CCC3C2)CC1` (stereo unspecified): the T/C under setting [11] was 105 % of control and the T/C under setting [12] was 100 % of control.
